Data published in publication PMC9916762, “Impact of Hydrophobic Chains in Five-Coordinate Glucoconjugate Pt(II) Anticancer Agents” (International Journal of Molecular Sciences, 2023).

Columns and labels:
[1] = test system: immortalized murine fibroblasts (BALB/c-3T3); details: read-out: IC50 BALB-c/3T3; 48 h incubation, MTT
Protocol: To evaluate their biological activity, the effects of the four complexes on cell viability were evaluated in eukaryotic cell models. For this purpose, experiments were performed on two cancer cell lines, i.e., human epidermoid carcinoma cells (A431) and murine fibroblast BALB/c-3T3 transformed with the SV40 virus (SVT2), and on two non-cancer cell lines, i.e., immortalized human keratinocytes (HaCaT) and immortalized murine fibroblasts (BALB/c-3T3). Cells were incubated with increasing concentrations of 1,Me-Me, 1,Oct-Me, 1,Me-Oct, and 1,Oct-Oct (from 0.1 to 50 μM). After 48 h of incubation, cytotoxicity was determined by MTT assay and cell survival was expressed as the percentage of viable cells in the presence of each complex compared with that of the untreated cells (Figure S19).
The immortalized human keratinocytes (HaCaT) were from Innoprot. Human The A431 epidermoid carcinoma, murine BALB/c-3T3, and SVT2 fibroblasts were from ATCC. Cells were cultured in Dulbecco’s modified Eagle’s medium (DMEM) (Sigma-Aldrich, St. Louis, MO, USA), supplemented with 10% foetal bovine serum (HyClone), 2 mM L-glutamine, and antibiotics, all from Sigma-Aldrich, under a 5% CO2-humidified atmosphere at 37 °C. To test the effects of the complexes on cell viability, cells were seeded at a density of 2.5 × 10^3 cells per well in 96-well plates. After 24 h, cells were incubated with increasing concentrations (from 0.1 to 50 μM) of the four complexes. After 48 h, cell viability was assessed by the MTT assay, as previously reported in [43]. Cell viability was expressed as the percentage of viable cells in the presence of the Pt complexes compared to the controls, represented by untreated cells and cells supplemented with identical volumes of DMSO. Each sample was tested in three independent analyses, each carried out in triplicate.

[2] = test system: murine fibroblast BALB/c-3T3 transformed with the SV40 virus (SVT2); experiment: MTT cell viability assay, SVT2; assay type: cell-based; details: for IC50: 48 h incubation, MTT; for SI (selectivity index): ratio IC50 BALB-c/3T3 / IC50 SVT2
Source text: (§1) The immortalized human keratinocytes (HaCaT) were from Innoprot.

[3] = Octanol/water partition coefficient, shake-flask method; assay type: physicochemical; details: n-octanol/water, UV-vis
Protocol: The partition coefficients in octanol/water (log Po/w) were measured using the shake-flask method, by calculating the equilibrium concentrations through UV spectra (Table 1).
Partition coefficients for the platinum complexes were determined in triplicate in an n-octanol/water system, with different ratios (1:1, 1:2, 2:1). Each complex was dissolved in n-octanol at the concentrations 16.7, 12.5, or 10 μM and subsequently, an appropriate volume of water was added. The mixtures were shaken mechanically for 1 h to ensure the distribution between the two solvent phases. The samples were then centrifuged (13,000 rpm, 10 min). Afterwards, the platinum concentration was determined in the octanol phases by UV–vis spectrophotometry, after collecting a calibration line for each complex. Results are expressed as the logarithm of the partition coefficient of octanol/water (log Po/w), which is the logarithm of the concentration of platinum in the n-octanol divided by its concentration in the aqueous layer.

[4] = test system: human epidermoid carcinoma cells (A431); experiment: MTT cell viability assay, A431; assay type: cell-based; details: for IC50: 48 h incubation, MTT; for SI (selectivity index): ratio IC50 HaCaT / IC50 A431
Source text: as §1

[5] = test system: immortalized human keratinocytes (HaCaT); experiment: MTT cell viability assay, HaCaT; assay type: cell-based; details: 48 h incubation
Source text: as §1

[6] = test system: A431 cells; experiment: Western blot of pro-caspases 9 and 3, A431; assay type: cell-based, human; details: A431, 2.3 μM, 48 h
Protocol: (§2) In particular, SVT2 and A431 were incubated for 48 h with 1-Me,Me and 1-Oct,Me, using the IC50 value concentrations. At the end of incubation, uptake and cell death mechanisms were evaluated. […] Finally, apoptosis was investigated by Western blot analyses using specific antibodies against pro-caspases 9 and 3.
The SVT2 were seeded on six-well plates at a density of 2.5 × 10^5 cells/well, whereas A431 was seeded at a density of 3 × 10^5 cells/well. After 24 h, cells were treated with 9.8 μM of 1-Me,Me or 2.3 μM 1-Oct,Me. After 48 h of incubation, Western blot analyses were performed by using pro-caspase 9 (Cell Signaling Technology, Danvers, MA, USA) and pro-caspase 3 (Abcam, Cambridge, MA, USA) antibodies, as reported by Del Giudice et al. Protein intensity levels were normalized using β-actin (Sigma-Aldrich, St. Louis, MO, USA). The chemiluminescence detection system was purchased from Bio-Rad (Hercules, CA, USA).

[7] = test system: A431 cells; experiment: Cellular Pt uptake by ICP-MS, A431; assay type: cell-based, human; details: A431, 2.3 μM (IC50), 48 h, mean ± S.E.
Protocol: as §2
To study the uptake of the complexes, SVT2 and A431 were incubated for 48 h in the presence of 1-Me,Me and 1-Oct,Me, respectively, at their IC50 concentrations. At the end of incubation, Pt determination was performed by inductively coupled plasma mass spectrometry (ICP-MS, Aurora M90; Bruker, Ettlingen/Leipzig, Germany) in the “Normal Sensitivity” mode. Calibration curves for the quantification of Pt ranged from 0.1 to 100 μg/L and were constructed daily by the analysis of the standard solutions prepared immediately before analysis. All standards used for analysis were prepared in HNO3 solution (2%, v/v). The internal standards were ^89Y and ^115In in both the calibration curve and sample analyses. The linearity was acceptable with an R^2 value greater than 0.9996. The treatment of the cells involved a wet digestion: after centrifugation, cell samples were wet digested with 1 mL of ultrapure HNO3 (67–69%, v/v). The mixture was gently boiled over a water bath (90 °C) for 3 h until a clear solution was obtained. […]

| Substance | IC50 [1] | IC50 [2] | SI (selectivity index) [2] | Log Po/w [3] | IC50 [4] | SI (selectivity index) [4] | IC50 [5] | pro-caspases 9 and 3 levels [6] | Pt uptake [7] |
| --- | --- | --- | --- | --- | --- | --- | --- | --- | --- |
| Platinum(1+), (2,9-dimethyl-1,10-phenanthroline- N1,N10)(η2-ethene)methyl[1,3-dihydro-1-methyl-3-octyl-4-[1-[2,3,4,6-tetrakis-O-(acetyl)-β-D-glucopyranosyl]-1H-1,2,3-triazol-4-yl]-2H-imidazol-2-ylidene], 1,1,1-trifluoromethanesulfonate [1-Me,Oct] | 8.3 ± 0.4 µM | 7.6 ± 1.1 µM | 1.09 | 0.74 | 7.3 ± 0.4 µM | 1.1 | 8 ± 0.1 µM |  |  |
| Platinum(1+), (2,9-dimethyl-1,10-phenanthroline- N1,N10)(η2-ethene)octyl[1,3-dihydro-1,3-dimethyl-4-[1-[2,3,4,6-tetrakis-O-(acetyl)-β-D-glucopyranosyl]-1H-1,2,3-triazol-4-yl]-2H-imidazol-2-ylidene], 1,1,1-trifluoromethanesulfonate [1-Oct,Me] | 7.1 ± 0.1 µM | 8.6 ± 0.6 µM | 0.83 | 1.14 | 2.3 ± 0.1 µM | 2.78 | 6.4 ± 1 µM | significant decrease in pro-caspases 9 and 3 levels | 14.3 ± 1.3 Pt ng/10^6 cells |
| Platinum(1+), (2,9-dimethyl-1,10-phenanthroline- N1,N10)(η2-ethene)octyl[1,3-dihydro-1-methyl-3-octyl-4-[1-[2,3,4,6-tetrakis-O-(acetyl)-β-D-glucopyranosyl]-1H-1,2,3-triazol-4-yl]-2H-imidazol-2-ylidene], 1,1,1-trifluoromethanesulfonate [1-Oct,Oct] | 7.3 ± 0.7 µM | 4.5 ± 1.3 µM | 1.62 | 0.80 | 5 ± 0.6 µM | 1.28 | 6.4 ± 0.8 µM |  |  |
